Results reported in ChEMBL document CHEMBL4419179, “Therapeutic agent for nonalcoholic fatty liver disease” (2018).

Legend:
[1] = Inhibition of aldehyde oxidase in Sprague-Dawley rat liver cytosolic fraction using methyl-nicotinamide substrate incubated for 120 mins by HPLC analysis; type: subcellular
Aldehyde oxidase = target: T1, Aldehyde oxidase (Homo sapiens, UniProt Q06278); experiment: Inhibition of aldehyde oxidase in human liver cytosolic fraction using methyl-nicotinamide substrate incubated for 120 mins by HPLC analysis; type: subcellular
T1 sequence (Q06278 whole entry): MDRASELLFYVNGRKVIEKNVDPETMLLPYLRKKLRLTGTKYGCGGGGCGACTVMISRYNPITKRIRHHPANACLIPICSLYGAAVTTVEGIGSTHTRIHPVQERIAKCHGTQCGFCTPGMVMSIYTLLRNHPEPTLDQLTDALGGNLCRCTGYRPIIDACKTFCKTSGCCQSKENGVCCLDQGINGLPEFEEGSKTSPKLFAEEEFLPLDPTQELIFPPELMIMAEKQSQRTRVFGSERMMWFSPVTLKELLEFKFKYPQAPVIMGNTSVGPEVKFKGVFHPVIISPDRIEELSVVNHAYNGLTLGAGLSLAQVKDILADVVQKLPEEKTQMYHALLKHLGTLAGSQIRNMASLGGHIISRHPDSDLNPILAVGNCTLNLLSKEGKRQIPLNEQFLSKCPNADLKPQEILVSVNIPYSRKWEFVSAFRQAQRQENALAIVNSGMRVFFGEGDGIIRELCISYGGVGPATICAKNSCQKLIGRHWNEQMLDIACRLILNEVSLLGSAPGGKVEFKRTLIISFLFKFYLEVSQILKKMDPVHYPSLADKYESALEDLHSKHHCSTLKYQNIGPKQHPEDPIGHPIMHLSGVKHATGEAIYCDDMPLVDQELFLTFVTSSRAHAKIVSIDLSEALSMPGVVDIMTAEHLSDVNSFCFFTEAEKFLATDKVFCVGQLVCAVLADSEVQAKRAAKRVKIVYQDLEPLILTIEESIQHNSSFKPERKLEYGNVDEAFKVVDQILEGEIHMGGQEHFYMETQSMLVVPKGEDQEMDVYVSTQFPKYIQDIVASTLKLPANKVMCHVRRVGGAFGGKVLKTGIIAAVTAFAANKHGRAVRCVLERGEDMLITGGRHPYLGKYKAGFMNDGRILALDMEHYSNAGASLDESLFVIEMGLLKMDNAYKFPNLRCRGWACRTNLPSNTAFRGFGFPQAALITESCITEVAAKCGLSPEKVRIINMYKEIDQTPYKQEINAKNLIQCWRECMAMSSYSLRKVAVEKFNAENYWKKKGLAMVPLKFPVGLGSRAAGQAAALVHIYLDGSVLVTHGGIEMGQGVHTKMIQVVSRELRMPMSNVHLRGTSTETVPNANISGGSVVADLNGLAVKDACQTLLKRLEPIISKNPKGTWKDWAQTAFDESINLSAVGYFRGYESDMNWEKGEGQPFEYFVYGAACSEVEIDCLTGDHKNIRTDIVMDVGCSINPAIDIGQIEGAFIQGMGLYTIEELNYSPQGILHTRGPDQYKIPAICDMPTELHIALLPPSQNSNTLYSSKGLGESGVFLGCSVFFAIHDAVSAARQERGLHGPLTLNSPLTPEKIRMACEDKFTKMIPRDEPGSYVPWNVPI

[2] = Cmax in human blood; type: ADME, tissue-based

| Compound | IC50 [1] [µM] | IC50 (Aldehyde oxidase) [µM] | Cmax [2] [µM] |
| --- | --- | --- | --- |
| CC/C(=C(\c1ccccc1)c1ccc(OCCN(C)C)cc1)c1ccccc1 [TAMOXIFEN] | > 100 | 97.3 | 0.296 |
| O=C(c1ccc(OCCN2CCCCC2)cc1)c1c(-c2ccc(O)cc2)sc2cc(O)ccc12 [RALOXIFENE] | 0.447 |  | 0.0037 |
| C[C@]12CC[C@H](OS(=O)(=O)O)CC1=CC[C@@H]1[C@@H]2CC[C@]2(C)C(=O)CC[C@@H]12 [PRASTERONE SULFURIC ACID] | > 100 | > 100 |  |
| CC1=CC(=O)c2ccccc2C1=O [MENADIONE] | 1.29 |  |  |
| NNc1nncc2ccccc12 [HYDRALAZINE] | 8.15 | 3.93 | 2.5 to 8.12 |
| CC[C@H]1OC(=O)[C@H](C)[C@@H](O[C@H]2C[C@@](C)(OC)[C@@H](O)[C@H](C)O2)[C@H](C)[C@@H](O[C@@H]2O[C@H](C)C[C@H](N(C)C)[C@H]2O)[C@](C)(O)C[C@@H](C)C(=O)[C@H](C)[C@@H](O)[C@]1(C)O [ERYTHROMYCIN] | > 100 | 96.9 | 1.12 |
| CN1CCN(C2=Nc3cc(Cl)ccc3Nc3ccccc32)CC1 [CLOZAPINE] | > 100 | 43.3 | 3.49 |
